Laboratory results published in patent US10221163B2 (priority 2015, dated 2019).
Like-named read-outs stand apart in the source and are kept apart here.

Columns and labels:
[1] = target: IMP-1 (Serratia marcescens, UniProt P52699); test: biochemical; type: biochemical; conditions: fluorescence assay, CCF2-FA substrate, 2 pM enzyme, 2 hours at 25° C.; read-out: IMP-1 IC50
Method in brief: (§1)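 Class B activity is measured in the presence of compound by fluorescence with CCF2-FA after a 2-hour incubation at 25° C. IC50 is taken from a 4-parameter fit of semi-logarithmic dose-response data.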

[2] = target: NDM-1 (Klebsiella pneumoniae, UniProt C7C422); test: biochemical; type: biochemical; conditions: fluorescence assay, CCF2-FA substrate, 1 pM enzyme, 2 hours at 25° C.; read-out: NDM-1 IC50
Method in brief: as §1

[3] = target: VIM-1 (Pseudomonas aeruginosa (strain ATCC 15692 / DSM 22644 / CIP 104116 / JCM 14847 / LMG 12228 / 1C / PRS 101 / PAO1), UniProt A0A0F7KYQ8); test: biochemical; conditions: CCF2-FA substrate, 30 pM enzyme, 2 hours at 25° C.
Method in brief: as §1

[4] = test system: Escherichia coli expressing NDM-1 (CLB30005, CLB30016); type: cell-based; conditions: with imipenem 1 μg/ml; for Escherichia coli MITC95: NDM-1 strain, 95% inhibition of growth; for Escherichia coli expressing NDM-1 (CLB30016) MITC95: 95% inhibition of bacterial growth
Method in brief: (§2)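 Growth by absorbance after 22–24 h at 35°C defined the read-out, with imipenem fixed at 1 μg/ml alongside compound. Inocula came from overnight blood-agar colonies at 35°C, resuspended in saline and diluted 1:100 in 1.1×CAMHB.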

[5] = test system: Klebsiella pneumoniae expressing VIM-1 (IHMA599644); type: cell-based; conditions: for Klebsiella pneumoniae MITC95: VIM-1 strain IHMA599644, with imipenem 1 μg/ml, 95% inhibition of growth; for Klebsiella pneumoniae expressing VIM-1 (IHMA599644) MITC95: with imipenem 1 μg/ml, 95% inhibition of bacterial growth
Method in brief: as §2

[6] = test system: Serratia marcescens expressing IMP-1 (CL5741); type: cell-based; conditions: for Serratia marcescens MITC95: IMP-1 strain CL5741, with imipenem 1 μg/ml, 95% inhibition of growth; for Serratia marcescens expressing IMP-1 (CL5741) MITC95: with imipenem 1 μg/ml, 95% inhibition of bacterial growth
Method in brief: as §2

[7] = test system: Pseudomonas aeruginosa efflux+ (MB9798), IMP-1; type: cell-based; set-up: Concentration of metallo-β-lactamase inhibitor which restores susceptibility of efflux + (MB9798) strain to imipenem: unit not given here; conditions: C, D serine β-lactamase inhibitor closely related to relebactam; for Concentration of metallo-β-lactamase inhibitor which restores susceptibility of efflux + (MB9798) strain to imipenem: imipenem at 2 μg/mL, in the presence of a class A; for P. aeruginosa expressing IMP-1, efflux + (MB9798) MITC95: concentration restoring susceptibility to imipenem at 2 μg/mL in the presence of a class A
Method in brief: (§3)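 Microbroth MIC tests in PAO1-background strains with fixed imipenem and/or ceftazidime, usually at the CLSI breakpoint, plus fixed class A/C β-lactamase inhibitor against AmpC. MBL inhibitor titrated; concentration restoring susceptibility recorded and compared as fold difference between efflux+ MB9798 and efflux− MB9799.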

[8] = test system: Pseudomonas aeruginosa efflux− (MB9799), IMP-1; type: cell-based; conditions: C, D serine β-lactamase inhibitor closely related to relebactam; for Concentration of metallo-β-lactamase inhibitor which restores susceptibility of efflux − (MB9799) strain to imipenem: imipenem at 2 μg/mL, in the presence of a class A; for P. aeruginosa expressing IMP-1, efflux − (MB9799) MITC95: concentration restoring susceptibility to imipenem at 2 μg/mL in the presence of a class A
Method in brief: as §3

[9] = test system: Pseudomonas aeruginosa MB9798 vs MB9799
Method in brief: as §3

[10] = fluorescence assay, read-out: VIM-1 IC50
[11] = fold difference between efflux+ (MB9798) and efflux− (MB9799) strains, imipenem at 2 μg/mL
[12] = ratio MITC95 PA_9798/MITC95 PA_9799

Sequence of IMP-1 (P52699 whole entry, looked up, species assumed): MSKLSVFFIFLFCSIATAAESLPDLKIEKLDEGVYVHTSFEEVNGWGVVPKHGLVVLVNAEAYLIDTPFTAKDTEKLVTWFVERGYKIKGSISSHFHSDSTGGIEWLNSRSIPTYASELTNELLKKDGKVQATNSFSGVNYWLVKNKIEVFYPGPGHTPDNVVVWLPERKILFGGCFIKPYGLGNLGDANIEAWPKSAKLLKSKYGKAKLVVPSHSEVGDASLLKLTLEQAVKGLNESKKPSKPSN
Sequence of NDM-1 (C7C422 whole entry, looked up, species assumed): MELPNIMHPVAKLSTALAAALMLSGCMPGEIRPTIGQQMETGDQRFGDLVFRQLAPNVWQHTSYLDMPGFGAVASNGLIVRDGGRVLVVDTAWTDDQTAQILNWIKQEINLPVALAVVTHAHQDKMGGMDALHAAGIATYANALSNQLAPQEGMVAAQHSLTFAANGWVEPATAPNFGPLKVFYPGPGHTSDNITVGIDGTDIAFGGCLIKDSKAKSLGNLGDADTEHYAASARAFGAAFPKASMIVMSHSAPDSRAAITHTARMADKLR

Structure (SMILES)	IC50 [1] [pM]	IC50 [2] [pM]	IC50 [3, 10] [pM]	Escherichia coli MITC95 [4] [µM]	Klebsiella pneumoniae MITC95 [5] [µM]	Serratia marcescens MITC95 [6] [µM]	Concentration of metallo-β-lactamase inhibitor which restores susceptibility of efflux + (MB9798) strain to imipenem [7]	Concentration of metallo-β-lactamase inhibitor which restores susceptibility of efflux − (MB9799) strain to imipenem [8]	Efflux ratio [9, 11]	Escherichia coli expressing NDM-1 (CLB30016) MITC95 [4] [µM]	Klebsiella pneumoniae expressing VIM-1 (IHMA599644) MITC95 [5] [µM]	Serratia marcescens expressing IMP-1 (CL5741) MITC95 [6] [µM]	P. aeruginosa expressing IMP-1, efflux + (MB9798) MITC95 [7] [µM]	P. aeruginosa expressing IMP-1, efflux − (MB9799) MITC95 [8] [µM]	Efflux ratio [9, 12]	IC50 ([3]; VIM-1 IC50, fluorescence assay) [pM]
NCCNS(=O)(=O)c1ccc(-c2cccc3c2CCCN3)c(-c2nn[nH]n2)c1S(N)(=O)=O [Example 455, N1-(2-Aminoethyl)-4-(1,2,3,4-tetrahydroquinolin-5-yl)-3-(2H-tetrazol-5-yl)benzene-1,2-disulfonamide]	530	216	162	1.563	3.125	3.125	12.5	1.563	8.00							
NS(=O)(=O)c1c(S(=O)(=O)N[C@@H]2CCNC2)ccc(-c2ccc3c(c2)C(=O)NC3)c1-c1nnn[nH]1 [Example 138, (R)-4-(3-oxoisoindolin-5-yl)-N1-(pyrrolidin-3-yl)-3-(1H-tetrazol-5-yl)benzene-1,2-disulfonamide]	275	124	150							3.125	3.125	3.125	1.563	1.563	1.00	
Nc1ccc(-c2ccc(S(=O)(=O)NC[C@H]3CCNC3)c(S(N)(=O)=O)c2-c2nn[nH]n2)cn1 [Example 484, (S)-4-(6-aminopyridin-3-yl)-N1-(pyrrolidin-3-ylmethyl)-3-(2H-tetrazol-5-yl)benzene-1,2-disulfonamide]	248	102	131	0.1953	3.125	0.3906	0.7813	0.7813	1.00							
NCCNS(=O)(=O)c1ccc(-c2ccccc2NC(=O)CN)c(-c2nn[nH]n2)c1S(N)(=O)=O [Example 452]	6210	1720	994	3.125	6.25	3.125	6.25	1.563	4.00							
Nc1nc2c(-c3ccc(S(=O)(=O)N4CC(F)(F)C4)c(S(N)(=O)=O)c3-c3nnn[nH]3)cccc2s1 [Example 42, 3-(2-amino-1,3-benzothiazol-4-yl)-6-[(3,3-difluoroazetidin-1-yl)sulfonyl]-2-(1H-tetrazol-5-yl)benzenesulfonamide]	700	697								12.5	12.5	3.125	25	1.563	15.99	670
NCCNS(=O)(=O)c1ccc(-c2cnc3cc[nH]c3c2)c(-c2nn[nH]n2)c1S(N)(=O)=O [Example 359, N1-(2-aminoethyl)-4-(1H-pyrrolo[3,2-b]pyridin-6-yl)-3-(2H-tetrazol-5-yl)benzene-1,2-disulfonamide]	1610	154	254	0.09766	1.563	0.3906							1.563	0.7813	2.00	
NCC(CN)NS(=O)(=O)c1ccc(-c2ccnc(-c3cnc(N)[nH]3)c2)c(-c2nnn[nH]2)c1S(N)(=O)=O [Example 437, 4-(2-(2-Amino-1H-imidazol-5-yl)pyridin-4-yl)-N^1-(1,3-diaminopropan-2-yl)-3-(1H-tetrazol-5-yl)benzene-1,2-disulfonamide]	2410	1180		0.7813	3.125	3.125	1.563	0.7813	2.00							952
Nc1nc2c(-c3ccc(S(=O)(=O)NC[C@@]4(N)CCNC4)c(S(N)(=O)=O)c3-c3nn[nH]n3)cccc2[nH]1 [Example 251, (R)-4-(2-amino-1H-benzo[d]imidazol-4-yl)-N1-((3-aminopyrrolidin-3-yl)methyl)-3-(2H-tetrazol-5-yl)benzene-1,2-disulfonamide]	755	56.7	194	0.7813	1.563	0.7813							0.7813	0.7813	1.00	
N[C@@H](CO)CNS(=O)(=O)c1ccc(-c2cccc(C3N=CN=N3)c2)c(-c2nn[nH]n2)c1S(N)(=O)=O (stereo partly drawn) [Example 226, N4-((R)-2-amino-3-hydroxypropyl)-2-(2H-tetrazol-5-yl)-3′-(3H-1,2,4-triazol-3-yl)-[1,1′-biphenyl]-3,4-disulfonamide]	3240	747	948							6.25	12.5	3.125	6.25	3.125	2.00	
NCC1CN(S(=O)(=O)c2ccc(-c3cccc4sc(N)nc34)c(-c3nnn[nH]3)c2S(N)(=O)=O)CCO1.O=C(O)C(F)(F)F (stereo not drawn) [Example 104, (4-((4-(2-aminobenzo[d]thiazol-4-yl)-2-sulfamoyl-3-(1H-tetrazol-5-yl)phenyl)sulfonyl)morpholin-2-yl)methanaminium 2,2,2-trifluoroacetate]	1240	228	1590							1.563	6.25	3.125	3.125	1.563	2.00	
